The results in this text go back to PubChem BioAssay (NCI).

Among the test systems are CCRF-CEM leukemia; DU-145 prostate; HCT-116 colon; MALME-3M melanoma; MCF7 breast; MDA-MB-231 breast; MDA-MB-435; MOLT-4 leukemia; NCI-H522 lung; OVCAR-3 ovarian; OVCAR-4 ovarian; OVCAR-5 ovarian; RPMI-8226 leukemia; SF-268 CNS; SK-MEL-5 melanoma; SNB-19 CNS; SR leukemia; SW-620 colon; RXF 393 renal.
Assay in all cases: NCI-60 cell line screen, 48 h

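Cultured in 96-well plates, cells were exposed to test compound for 48 hours across five concentrations. TGI denotes the concentration required for complete inhibition of growth.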

As for `Cc1ccc(-c2n[nH]c(=O)n2N)cc1`, the TGI in the assay on CCRF-CEM leukemia, in the assay on DU-145 prostate, in the assay with HCT-116 colon, in the assay on MALME-3M melanoma, with MCF7 breast and with MDA-MB-231 breast was over 100 µM each time. Further, the TGI with MDA-MB-435, in the assay on MOLT-4 leukemia, in the assay on NCI-H522 lung, in the assay with OVCAR-3 ovarian, with OVCAR-4 ovarian and in the assay on OVCAR-5 ovarian was over 100 µM in each case. Moreover, the TGI with RPMI-8226 leukemia, with SF-268 CNS, in the assay with SK-MEL-5 melanoma, in the assay with SNB-19 CNS, with SR leukemia and with SW-620 colon was over 100 µM each time.

Take `CCCCCCCCCCCCCC/C(=C/OCC[N+](C)(C)C)OC(C)=O` (tested in a mixture with another compound): the TGI in the assay with CCRF-CEM leukemia is 3.67 µM; in the assay on DU-145 prostate, 17.1 µM; with HCT-116 colon it was 11.2 µM; with MALME-3M melanoma, 21.2 µM; in the assay with MCF7 breast, 10.3 µM; with MDA-MB-231 breast, 4.83 µM. Besides, the TGI turned out to be 7.49 µM in the assay with MDA-MB-435; 5.07 µM in the assay with NCI-H522 lung; 8.21 µM in the assay on OVCAR-3 ovarian; 7.7 µM with OVCAR-4 ovarian; 13.2 µM in the assay on OVCAR-5 ovarian; 4.16 µM in the assay with RPMI-8226 leukemia. For the same molecule, the TGI worked out at 2.45 µM with RXF 393 renal; 5.09 µM in the assay with SF-268 CNS; 4.92 µM in the assay on SK-MEL-5 melanoma; 3.35 µM in the assay on SNB-19 CNS; 4.57 µM in the assay with SR leukemia; 17.5 µM in the assay on SW-620 colon.

On to `O=C(Nc1ccccc1)N1CC(CN2CCN(c3ccccc3)CC2)OC1=O` (stereo unspecified), for which the TGI with CCRF-CEM leukemia, in the assay with DU-145 prostate, in the assay with HCT-116 colon, with MALME-3M melanoma, with MCF7 breast and with MDA-MB-231 breast was over 100 µM each time. Besides, the TGI in the assay on MDA-MB-435, in the assay on MOLT-4 leukemia, in the assay with NCI-H522 lung, with OVCAR-4 ovarian, in the assay with OVCAR-5 ovarian and with RPMI-8226 leukemia was over 100 µM throughout. The TGI in the assay on RXF 393 renal, with SF-268 CNS, in the assay with SK-MEL-5 melanoma, in the assay with SNB-19 CNS, with SR leukemia and in the assay on SW-620 colon was over 100 µM throughout.

With `Cn1c2nc(=Nc3ccc(Cl)cc3)n3ccc4ccccc4c3c2c(=O)n1-c1ccccc1`, the TGI with DU-145 prostate, in the assay with HCT-116 colon, in the assay with MALME-3M melanoma, in the assay on MCF7 breast, in the assay on MDA-MB-231 breast and in the assay with MDA-MB-435 was over 100 µM throughout. Further, the TGI with MOLT-4 leukemia, in the assay on NCI-H522 lung, with OVCAR-3 ovarian, in the assay on OVCAR-4 ovarian, with OVCAR-5 ovarian and in the assay with RPMI-8226 leukemia was over 100 µM in each case. For the same molecule, the TGI with RXF 393 renal, with SF-268 CNS, in the assay on SK-MEL-5 melanoma, with SNB-19 CNS, in the assay on SR leukemia and in the assay with SW-620 colon was over 100 µM each time.

For `N#CC1(C#N)C(c2ccccc2)NC23CCCCC2C1(C#N)C(=O)N3` (stereo unspecified), the TGI in the assay on CCRF-CEM leukemia, with DU-145 prostate, in the assay with HCT-116 colon, in the assay on MALME-3M melanoma, in the assay with MCF7 breast and in the assay with MDA-MB-231 breast was over 100 µM each time. The TGI in the assay with MDA-MB-435, in the assay with MOLT-4 leukemia, in the assay with NCI-H522 lung, with OVCAR-3 ovarian, in the assay with OVCAR-4 ovarian and in the assay on OVCAR-5 ovarian was over 100 µM in each case. In addition, the TGI in the assay on RPMI-8226 leukemia, in the assay with RXF 393 renal, in the assay on SF-268 CNS, with SNB-19 CNS, with SR leukemia and in the assay on SW-620 colon was over 100 µM in each case.

In the case of `S=C(NNC1=NCCCCN1)Nc1ccccc1`, the TGI in the assay on CCRF-CEM leukemia was over 100 µM; in the assay on DU-145 prostate, over 100 µM; in the assay with HCT-116 colon, 65.8 µM; with MALME-3M melanoma, over 100 µM; in the assay on MCF7 breast, over 100 µM; in the assay on MDA-MB-231 breast, over 100 µM. In addition, the TGI with MDA-MB-435, in the assay on MOLT-4 leukemia, in the assay on NCI-H522 lung, in the assay on OVCAR-3 ovarian, with OVCAR-5 ovarian and with RPMI-8226 leukemia was over 100 µM throughout. Besides, the TGI with SF-268 CNS, in the assay on SK-MEL-5 melanoma, in the assay on SNB-19 CNS and in the assay with SR leukemia was over 100 µM throughout.

`COc1cc(CSc2ccc(O)cc2)cc(O)c1O`: the TGI with CCRF-CEM leukemia is 87 µM; with DU-145 prostate, over 100 µM; in the assay with HCT-116 colon, 49.7 µM; with MALME-3M melanoma it was over 100 µM; in the assay on MCF7 breast, 33.8 µM; in the assay with MDA-MB-231 breast it was 73.5 µM. The TGI in the assay with MDA-MB-435 was 94.6 µM; in the assay on MOLT-4 leukemia, over 100 µM; in the assay with NCI-H522 lung, 38.3 µM; with OVCAR-3 ovarian, 67.6 µM; with OVCAR-5 ovarian, 53.4 µM; in the assay on RPMI-8226 leukemia it was 56.3 µM. Also, the TGI is over 100 µM with RXF 393 renal; 95.9 µM with SF-268 CNS; over 100 µM in the assay on SNB-19 CNS; over 100 µM in the assay on SR leukemia; over 100 µM with SW-620 colon.

With `Nc1nonc1-c1noc(-c2nonc2N)[n+]1[O-]`, the TGI is 32.8 µM in the assay with CCRF-CEM leukemia; over 100 µM in the assay on DU-145 prostate; over 100 µM with HCT-116 colon; 42.5 µM with MALME-3M melanoma; over 100 µM with MCF7 breast; over 100 µM with MDA-MB-231 breast. Also, the TGI in the assay with MDA-MB-435 is over 100 µM; with MOLT-4 leukemia, over 100 µM; in the assay on NCI-H522 lung, 28 µM; in the assay with OVCAR-4 ovarian it was over 100 µM; with OVCAR-5 ovarian, over 100 µM; in the assay on RPMI-8226 leukemia it was over 100 µM. Also, the TGI with RXF 393 renal is 51.1 µM; in the assay on SF-268 CNS it was over 100 µM; in the assay with SK-MEL-5 melanoma, over 100 µM; with SNB-19 CNS it was over 100 µM; in the assay on SR leukemia, over 100 µM; in the assay with SW-620 colon, 79.2 µM.
